Among the data in a melting point compilation (Tetko et al.) are melting point values, retold here.

For orientation: melting point means the temperature, or range, at which the solid turns liquid.

Turning to `O=C1c2ccccc2CC2C=CC=CN12` (stereo unspecified), the melting point is 93 °C.
As to `CC(=O)O[C@@H]1CC[C@@]2(C)C(CC[C@@H]3[C@@H]2CC[C@@]2(C)[C@H]3CC[C@]2(O)/C=C/c2ccccc2)C1` (stereo partly specified), the melting point was in the range of 160 to 164 °C.
Turning to `C=C(NC(C)=O)C(=O)O`, the melting point lay within 184 to 187 °C.
Then `CSc1nc(NS(=O)(=O)c2ccc(C)cc2)c(C#N)c(-c2ccc(Cl)cc2)c1Br`, with 218 °C; and `CCCCOc1ccc(/C=N/NC(=O)C(=O)N/N=C/c2ccc(OCCCC)cc2)cc1`, with 301 to 303 °C.
Compound `CC(=O)CCc1oc2ccc(C)cc2c1-c1ccc(C)o1` registered a melting point of 76 °C.
Then `COc1ccc(NC(=S)c2ccccc2)cc1`, with 133 °C; and `Nc1ccc(O)c(C(=O)O)c1`, with 284 °C; and `ClC#CCl`, with -66 °C.
Consider `COc1ccc(CCNCC(O)COc2cccc(C)c2)cc1OC` (stereo unspecified), for which the melting point came out at 138 °C.
With `C/C=C/C1Nn2c(nnc2-c2cccc([N+](=O)[O-])c2)S1` (stereo unspecified) the figure was 222 to 224 °C; with `O=Cc1cccc2ccsc12`, 42 to 43.5 °C.
Then `CCN(CC)CCOc1ccc(C(O)(Cc2ccc(Cl)cc2)c2ccc(C)cc2)cc1` (stereo unspecified), with 103 °C; and `Cn1cncc1C(=O)O`, with 247 to 248 °C.
With `Clc1cccc(-c2cccc(Cl)c2)c1` the figure was 29 °C.
The compound `O=C1OC(c2ccccc2)c2ccccc21` (stereo unspecified) showed a melting point of 117 °C.
With `Cc1ccc2c(c1)OC(C)(c1ccc(C)cc1OC(=O)[C@]13CC[C@](C)(C(=O)O1)C3(C)C)CC2(C)C` (stereo partly specified) the figure was 136 °C; with `Cc1cc(N=Nc2ccccc2)c(C(C)C)cc1N=Nc1ccccc1`, 108 °C.
For `NNc1c(Cl)cc(Cl)cc1Cl`, the melting point turned out to be 142 °C.
In turn, `CCC(=O)c1cc(C)ccc1O` came in with a melting point of 2 °C.
With `OC1(C#Cc2ccccc2)Cc2ccccc21` (stereo unspecified) the figure was 99 °C; with `NC(=S)c1ccc(-c2ccccn2)s1`, 198 to 200 °C; with `Cc1nc(/C(C#N)=N/Nc2ccc(Cl)cc2)sc1/N=N/c1ccccc1`, 225 °C.
Then `O=C1CCCCCN1c1ccccc1`, with 57 °C; and `COc1ccc(NC(=O)C=CC(=O)O)cc1`, with 190 to 193 °C.
Regarding `CSc1nc(-c2ccc(C)cc2)nc(N)c1C#N`, the melting point fell in the range of 213 to 214 °C.
Then `Cc1nc([N+](=O)[O-])c(Br)n1CCC#N`, with 152 to 155 °C; and `Cn1c(/C(C#N)=N/Nc2c(Br)cc(Br)cc2Br)nc2ccccc21`, with 180 °C; and `CCOC(=O)c1ccccc1C(=O)OCC`, with -40.5 °C.
Take `O=C(C=NO)Nc1ccc(Cl)cc1Cl`: the melting point lay within 198 to 201 °C.
The compound `O=S(=O)(Cl)c1ccc(-c2ccccc2)nc1` registered a melting point of 106 to 108 °C.
On to `C=CCc1cc(Cl)ccc1O`, for which the melting point was found to be 48 °C.
With `CCOC(=O)C(Br)C(=O)OCC` the figure was -54 °C; with `S=C1NCCCN1`, 211 °C.
`CCOC(=O)c1cnc2c(c(C)nn2C)c1Oc1cc(Cl)cc(Cl)c1` yielded a melting point of 115 to 117 °C.
On to `Nc1ccc(Br)cc1C(=O)c1ccccc1F`, for which the melting point lay in the range of 100 to 104 °C.
Then `Cc1ccc(O)c([N+](=O)[O-])n1`, with 107 °C.
Then `CCCCCc1ccc(-c2ccc(C#N)cc2)cc1`, with 34 °C; and `O=C1CSc2ccccc2N1`, with 178 to 181 °C.
With `Nc1ccc(-c2ccc3nn(-c4ccccc4)nc3c2)cc1` the figure was 224 to 225 °C; with `Cn1nc(-c2ccccc2)cc1N`, 132 to 135 °C; with `N#C/C(=N\Nc1c(Br)cc(Br)cc1Br)c1nc2ccccc2[nH]1`, 270 °C.
Consider `O=C(NC(NC(=O)c1ccccc1)c1ccccc1OCc1ccccc1Cl)c1ccccc1`, for which the melting point lay in the range of 241 to 243 °C.
With `Nc1ccc(S(=O)c2ccc(N)cc2)cc1` the figure was 175 °C.
`O=C(O)c1cc2sccc2s1` displayed a melting point of 222 °C.
Then `N=C(N)c1ccc(N)cc1`, with 182 °C.
With `NCc1cccc(-c2ccccc2)c1` the figure was 28 to 30 °C; with `CC(=O)Oc1c(C)cc(O)c(C)c1C`, 108 to 109 °C; with `Cc1cccc(Cc2ccccc2)c1`, -28 °C.
Then `CC(=O)Oc1ccc([N+](=O)[O-])cc1`, with 76 to 79 °C; and `Cc1cc(C)n(CN(CCO)Cn2nc(C)cc2C)n1`, with 82 to 84 °C.
In turn, `COc1c(F)cc(N)cc1Br` came in with a melting point of 72 °C.
With `CCOC(=O)C1=NN(c2ccccc2)C(=O)C1=CC1C(=O)N(c2ccccc2)N=C1C(=O)OCC` (stereo unspecified) the figure was 179 to 180 °C; with `N#CCc1nc2ccccc2[nH]1`, 210 to 215 °C.
With `Nc1nc(-c2ccccc2)cs1` the figure was 150 °C.
With `CC(CCl)(CCl)C(=O)O` the figure was 64 to 66 °C; with `ClCc1nc(-c2ccc(OCc3ccc(Cl)cc3)cc2)no1`, 118 °C.
In turn, `Cc1ccc(Cn2ncc3c(N)ncnc32)cc1` returned a melting point of 222 °C.
`Cc1nc(-c2ccc(C(F)(F)F)cc2)sc1C#N` registered a melting point of 155 to 156 °C.
Then `NS(=O)(=O)c1ccc(-c2ccc(C=O)o2)cc1`, with 199 to 201 °C; and `Cc1cc(O)c2c(c1)C(=O)c1cc(O)cc(O)c1C2=O`, with 257 °C.
The compound `CNC(=O)Oc1ccc2c(c1)C1(C)CCN(C)OC1N2C` (stereo unspecified) had a melting point of 129 °C.
Compound `Fc1ccc2nc(C(F)(F)F)cc(Cl)c2c1` yielded a melting point of 78 to 82 °C.
Turning to `CCc1ccccc1-c1ccccc1`, the melting point is -6 °C.
With `Oc1ncnc2cccc(F)c12` the figure was 238 °C; with `N#Cc1cc([N+](=O)[O-])ccc1Sc1nnc(N)s1`, 245 to 246 °C; with `Oc1nn(-c2ccc(Br)cc2)cc1Br`, 199 to 201 °C.
For `N#Cc1c(C(F)(F)F)cc(-c2cccs2)n(N)c1=O`, the melting point was determined as 234 °C.
Compound `Cc1ccc(/C=N/c2nc(C(F)(F)F)n[nH]2)cc1` returned a melting point of 207 to 209 °C.
Then `Cc1ccc(C)c(N/N=C(\C#N)c2nc3ccccc3n2C)c1`, with 260 °C; and `N#Cc1cc(Br)c(O)c(Br)c1`, with 190 °C.
In the case of `CCOC(=O)c1ccc2cn[nH]c2c1`, the melting point amounted to 125 °C.
Then `CCCN(CC)CC1COC2(CCC(C(C)(C)C)CC2)O1` (stereo unspecified), with < 25 °C; and `O=Cc1csc(-c2ccccc2)n1`, with 51 to 52 °C; and `CCOc1ccc(-c2nnc3n2NC(c2ccccc2O)S3)cc1` (stereo unspecified), with 177 °C.
Then `COC(=O)c1cnc(NN)nc1C(F)(F)F`, with 132 to 134 °C.
Compound `CCCCNC(=O)NCC(=O)O` registered a melting point of 140 °C.
`O=C1CCOc2ccc(Cl)cc21` showed a melting point of 102 °C.
Then `CN(C)CCCCN(C)C`, with -100 °C; and `C[C@]12CCC(O)CC1=CC[C@@H]1[C@@H]2CC[C@]2(C)C(O)CC[C@@]12C` (stereo partly specified), with 182 to 184 °C; and `O=C(Cl)c1sccc1Cl`, with 45 to 46 °C.
Turning to `CC(=O)C=Cc1ccco1`, the melting point came out at 39.5 °C.
Then `Nc1cc([N+](=O)[O-])c(/C=C/c2ccccc2)cc1/C=C/c1ccccc1`, with 111 °C; and `OCc1cc2cc(Br)ccc2o1`, with 101 to 103 °C; and `Cc1cc(C(=O)O)ccc1O`, with 174 to 175 °C.
`c1ccc(-c2cnc(-c3cccc4ccccc34)o2)cc1` had a melting point of 104 to 106 °C.
With `Cc1nccc2c1[nH]c1ccccc12` the figure was 236 °C; with `Brc1ccc(Oc2ccc(Br)c(Br)c2)cc1`, 48 to 49 °C; with `CCC(Cc1c(I)cc(I)c(O)c1I)C(=O)O` (stereo unspecified), 147 °C.
With `CS(=O)(=O)N1CCNCC1` the figure was 99 to 100 °C; with `O=c1ccc2cc3ccoc3c(O)c2o1`, 252 °C.
Then `O=C(O)CCN1C(=O)C=CC1=O`, with 104 °C; and `O=[N+]([O-])c1ccc(Cl)cc1Nc1ccccc1`, with 110 to 114 °C.
With `C=C1C(=O)C23C4CC5C(C)(C)CCC(OC(C)=O)C5(C)C2C(OC(C)=O)CC1(OC(C)=O)C3OC(C)(C)O4` (stereo unspecified), the melting point is 221 °C.
Then `C=CCOc1ccc2c(=O)cc(C(=O)OCC)oc2c1CCC`, with 84 to 86 °C; and `CC(c1ccccc1)C(C)(C)O` (stereo unspecified), with 46 °C; and `COC(=O)c1cccc(CN2CCOCC2)c1`, with 46 to 47 °C.
With `CCCCCCCOc1ccc(N=[N+]([O-])c2ccc(OCCCCCCC)cc2)cc1` the figure was 73 to 122 °C.
With `Cc1cc2ccccc2c(-c2ccccc2)n1` the figure was 87 °C; with `Cn1ccsc1=NC(=O)c1ccccc1`, 114 °C.
`N#C/C(=N\Nc1cccc(C(=O)O)c1)c1nc2ccccc2s1` came in with a melting point of 200 °C.
With `CC(C)OP(=O)(CCP(=O)(OC(C)C)OC(C)C)OC(C)C` the figure was 35.5 °C.
With `C[Si](C)(O)c1ccc([Si](C)(C)O)cc1` the figure was 135 °C; with `O=C1CCc2ccc(F)cc21`, 61 to 63 °C.
`O=[N+]([O-])c1cccc(-c2noc(CCl)n2)c1`: the melting point lay within 60 to 62 °C.
Then `Cc1cc(N)no1`, with 59 to 63 °C; and `CCCCCCCC(=O)NN`, with 88 °C.
Then `CC(C)(O)Cc1ccccc1`, with 24 °C; and `NS(=O)(=O)c1ccccc1Cl`, with 190 °C.
Then `NS(=O)(=O)c1cc2c(cc1C(F)(F)F)NC(Cc1ccccc1)NS2(=O)=O` (stereo unspecified), with 222 °C; and `Cn1nc(CCl)cc1-c1cccs1`, with 41 to 42 °C.
